Laboratory results from patent publication US9861712B2, “Preparation of extremely small and uniform sized, iron oxide-based paramagnetic or pseudo-paramagnetic nanoparticles and MRI T1 contrast agents using the same” (Hanwha Chemical Corporation, priority 2010, dated 2018).

Test system: rats
Experiment: In vivo MR imaging (dynamic time-resolved MR angiography, 3d-FLASH) of blood vessels
Description: Dynamic time-resolved MR angiography and 3d-FLASH images of rats were acquired using a wrist coil on a 3 T MRI scanner before and after the injection of 3 nm iron oxide nanoparticles capped by PO-PEG, prepared according to example 13 (dose: 2.5 mg Fe/kg). The pre-contrast images were subtracted from post-contrast images, and the resulting images were reconstructed using maximum intensity projection (MIP) protocol with OsriX (Version 3.8.1; 32 bit; OsiriX foundation, Geneva). Dynamic time-resolved MR angiography was obtained with an interpolated temporal resolution of 1.25 second and the following parameters: flip angle=20, ETL=1, TR=3.1 ms, TE=1.13 ms, field of view FOV=75×140 mm^2, matrix=256×106, slice thickness/gap=2.5 mm/0 mm, and NEX=1. The imaging parameters of 3d-FLASH are as follows: flip angle=25, ETL=1, TR=25 ms, TE=5.1 ms, field of view FOV=110×65 mm^2, matrix=256×169, slice thickness/gap=1.0 mm/0 mm, and NEX=2.
MR imaging using the 3 nm nanoparticles capped by glucose 6-phosphate was performed according to example 16.

blood half-life (in words): short blood half-life
Compound: O=C([O-])CN1CCN(CC(=O)[O-])CCN([C@H](CO)[C@H](O)CO)CCN(CC(=O)[O-])CC1.[Gd+3] (racemic) [Gadovist]
contrast effect of in vivo MR image immediately after the injection (immediately after the injection): high contrast effect
time in which the bright signal vanished (in vivo MR image after injection): 2 min
